Laboratory results from patent US10780078B2, “Mu opioid receptor modulators” (THE REGENTS OF THE UNIVERSITY OF CALIFORNIA, priority 2017, dated 2020).
Where two headings read alike, the source gives them in different places.

Key:
μ (MOR) receptor = μ (MOR) receptor (Homo sapiens (Human), UniProt P35372); test: Inhibitory constant at μ opioid receptor (MOR); format: binding
δ (DOR) receptor = δ (DOR) receptor (Homo sapiens (Human), UniProt P41143); test: Inhibitory constant at δ opioid receptor (DOR); format: binding
δ (DOR) receptor, sequence (P41143 whole entry, looked up): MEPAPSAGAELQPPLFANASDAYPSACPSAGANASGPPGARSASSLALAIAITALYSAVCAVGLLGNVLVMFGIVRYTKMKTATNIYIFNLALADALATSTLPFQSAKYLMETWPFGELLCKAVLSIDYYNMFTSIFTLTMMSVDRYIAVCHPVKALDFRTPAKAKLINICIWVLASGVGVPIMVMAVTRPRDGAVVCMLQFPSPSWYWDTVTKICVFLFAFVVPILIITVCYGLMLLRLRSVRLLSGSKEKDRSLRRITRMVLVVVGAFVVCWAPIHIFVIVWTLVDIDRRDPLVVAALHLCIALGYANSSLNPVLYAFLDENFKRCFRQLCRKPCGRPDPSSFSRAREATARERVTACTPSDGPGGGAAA

human μOR = human μOR (Homo sapiens (Human), UniProt P35372); test: cell-based
Procedure: Determination of functional activity of selected embodiments was performed using a BRET-based cAMP accumulation assay. […] After 24 hrs of transfection cells were seeded into white half-area 96-well plates at a density of 10000 cells/well and grown for further 24 hrs. On the day of measurement, medium was removed and replaced by Phosphate Buffered Saline (PBS) and cells were serum starved for 1 hr before treatment with ligands. Cells were preincubated with coelenterazine h (Progmega, Mannheim, Germany) for 5 min at a final concentration of 5 μM before adding forskolin (final concentration 10 μM) to start cAMP accumulation. Immediately after adding forskolin, a series of concentrations of test compounds were added to the cells. After incubating the microplates for 15 min at 37° C. BRET, measurement was performed using a Clariostar plate reader (BMG LabTech, Ortenberg, Germany).

[1] = biological target: MOR (ProLink tagged MOR-PK1 / β-arrestin-2) (Homo sapiens (Human), UniProt P35372); test: β-arrestin recruitment, PathHunter enzyme complementation assay (DiscoverX); format: cell-based; details: for MOR activation, β-arrestin recruitment Emax: HEK-293 cells, normalized to maximum effect of DAMGO (100%); for Emax: HEK293, read-out: MOR activation, β-arrestin recruitment Emax
Procedure: (§1) β-Arrestin recruitment was measured by using the PathHunter enzyme complementation assay (DiscoverX, Birmingham, U.K.) as described in the manufacturer's protocol. […] After 24 h cells were transferred into white clear bottom 384-well plates (5000 cells/well) (Greiner Bio-One) and maintained for further 24 h at 37° C., 5% CO2. Test compounds were incubated with the cells in a range from 0.01 nM to 1 μM dissolved in PBS for 90 min at 37° C. Arrestin recruitment was stopped by addition of detection mix for 60 min at room temperature. Chemiluminescence was determined using a Clariostar plate reader. Data analysis was done by nonlinear regression using the algorithms for log(agonist) vs. response of PRISM 6.0 (GraphPad, San Diego, Calif.). […] For testing the arrestin recruitment in the presence of GRK proteins cells were cotransfected with ProLink tagged MOR-PK1 and GRK2 at equal quantities.

[2] = biological target: MOR (ProLink tagged MOR-PK1 cotransfected with GRK2 / β-arrestin-2) (Homo sapiens (Human), UniProt P35372); test: β-arrestin recruitment in the presence of GRK2, PathHunter assay; format: cell-based; details: for MOR activation, β-arrestin recruitment (+GRK2) Emax: HEK-293 cells cotransfected with GRK2; for EC50: MOR activation, β-arrestin recruitment (+GRK2) EC50, HEK-293 cells cotransfected with GRK2
Procedure: as §1

[3] = Example 1, read-out: MOR: cAMP BRET: EC50
[4] = HEK-293T cells, forskolin 10 μM, mean of three to ten experiments, read-out: MOR activation, cAMP accumulation EC50
[5] = normalized to maximum effect of DAMGO (100%)

SMILES | Ki (μ (MOR) receptor) | Ki (δ (DOR) receptor) | MOR activation, cAMP accumulation Emax (human μOR) | MOR: cAMP BRET: Emax (human μOR; Example 1) | EC50 (human μOR; [3]) | EC50 (human μOR; [4]) | MOR activation, β-arrestin recruitment Emax [1] | MOR activation, β-arrestin recruitment (+GRK2) Emax [2, 5] | Emax [1] | EC50 [2] | Emax (human μOR; Example 1, read-out: MOR: cAMP BRET: Emax) | Emax (human μOR; HEK-293T, read-out: MOR activation, cAMP accumulation Emax) | Emax ([2]; HEK293, read-out: MOR activation, β-arrestin recruitment (+GRK2) Emax, HEK-293 cells cotransfected with GRK2, normalized to maximum effect of DAMGO (100%)) | MOR: Arrestin DiscoverX ([1]; Example 1)
C[C@@H](Cc1ccsc1)NC(=O)NCC1(N(C)C)CCc2ccccc2C1 (single isomer, unassigned) [DD 262 P1] | 2600 nM | 14000 nM | – | – | – | – | – | – | – | – | – | – | – | –
C[C@@H](Cc1ccsc1)NC(=O)NCC1(N(C)C)CCc2ccccc2C1 (single isomer, unassigned) [DD 262 P2] | 1300 nM | 7400 nM | – | – | – | – | – | – | – | – | – | – | – | –
C[C@@H](Cc1ccsc1)NC(=O)NCC1(N(C)C)CCc2cc(O)ccc2C1 (single isomer, unassigned) [DD 272A] | 140 nM | 1800 nM | 75% | 108% | 136 nM | 24 nM | <3% | <3% | – | – | – | – | – | –
C[C@@H](Cc1ccsc1)NC(=O)NCC1(N(C)C)CCc2cc(O)ccc2C1 (single isomer, unassigned) [DD 272B] | 57 nM | 840 nM | 98% | 50% | 1.6 nM | 1.5 nM | – | 7% | < 3% | 450 nM | – | – | – | –
C[C@@H](Cc1ccsc1)NC(=O)NCC1(N(C)C)Cc2ccc(O)cc2C1 (single isomer, unassigned) [DD 297A] | 5.9 nM | 68 nM | – | – | 1.8 nM | 1.2 nM | – | – | < 3% | 42 nM | 80% | 80% | 13% | –
C[C@@H](Cc1ccsc1)NC(=O)NCC1(N(C)C)Cc2ccc(O)cc2C1 (single isomer, unassigned) [DD 297B] | 190 nM | 2000 nM | 73% | 65% | 12.5 nM | 13 nM | <3% | 7% | – | 670 nM | – | – | – | –
C[C@@H](Cc1ccsc1)NC(=O)NCC1(N(C)C)Cc2ccccc2C1 [DD 277, (S)-1-((2-(dimethylamino)-2,3-dihydro-1H-inden-2-yl)methyl)-3-(1-(thiophen-3-yl)propan-2-yl)urea] | 500 nM | 8400 nM | – | – | – | – | – | – | – | – | – | – | – | –
C[C@@H](Cc1ccsc1)NC(=O)NCC1(N(C)C)Cc2ccc(O)cc2C1 (stereo partly drawn) [DD 297A, 1-((2-(dimethylamino)-5-hydroxy-2,3-dihydro-1H-inden-2-yl)methyl)-3-((S)-1-(thiophen-3-yl)propan-2-yl)urea] | – | – | – | – | – | – | – | – | – | – | – | – | – | no significant activity
